Like-named read-outs stand apart in the source and are kept apart here.
System: HIV (LAV 1)
Assay: microbe, parasite or virus in culture
Details: for Viable cell count / Viral antigen-positive cell percentage: 4-day addition; for viability at 1 µg/mL / viability at 10 µg/mL: Human immunodeficiency virus 1, CCRF-CEM
Protocol: Human T cell-derived, T4 antigen-positive CEM cells (provided by the Institut Pasteur, France) were used as host cells of HIV. Cell culture was carried out in a carbon dioxide-containing atmosphere in an incubator maintained at 37°C according to a conventional method [cf. […] The culture supernatant (5×10⁶ TCID₅₀/ml) obtained by subjecting CEM cells to HIV (LAV 1) infection and stored at -70°C was used as the HIV source.
The medium for cell culture (10 ml) placed in a plastic culture flask (25 cm²) was inoculated with CEM cells at a cell density of 2.5×10⁵ cells/ml. After 3 days of incubation, the culture was transferred to a 15-ml centrifuge tube and subjected to centrifugation at 1,000 revolutions per minute for 5 minutes for sedimentation of cells and removal of the culture medium.
The stock viral suspension was added to the host cells thus prepared to an MOI of 0.05 and the mixture was maintained at 37°C for 90 minutes with stirring at 30-minute intervals for viral adsorption. The medium was added to HIV-infected cells to a cell density of 5.0×10⁵ cells/ml to give an HIV-infected cell suspension.
A mixture (1.0 ml) of the three constituents mentioned below was added to each well of a 24-well plastic culture plate and the test substance final concentration was adjusted to 10 mcg/ml, 5 mcg/ml, 2.5 mcg/ml or 1 mcg/ml. The "no addition" wells (0 mcg/ml) served as controls.
After 4 days of incubation following viral infection, the cells in each well on the 24-well culture plate were suspended uniformly by pipetting and a 0.5-ml portion of the suspension was separated. A 2.0-ml portion of test substance-free fresh medium was added to the remaining 0.5-ml portion of the cell suspension, followed by incubation.
Seven days after viral infection, pipetting was performed to give a uniform cell suspension in each well and a 0.5-ml portion of the suspension was separated.
Incubation was continued and, 10 days after viral infection, a uniform cell suspension was produced in the same manner in each well and a 1.5-ml portion thereof was separated. A fresh 2.0-ml portion of the medium free of (or containing) the test substance was added to the well, followed by further incubation.
Fifteen days after viral infection, the cells in each well were suspended uniformly in the same manner in the medium and a 2.0-ml portion of the suspension was separated. A fresh 2.0-ml portion of the medium free of (or containing) the test substance was added to the remaining 0.5 ml of the cell suspension and incubation was continued.
Medium exchange was performed in the same manner 20 days and 25 days after viral infection.
The cell suspensions collected 4 days, 7 days, 10 days, 20 days and 30 days after viral infection were tested for viable cell count and viable cell percentage by trypan blue staining. At the same time, viral antigen-positive cell percentage determination was carried out by immunofluorescence using an anti-HIV antiserum isolated from a healthy carrier of HIV.
The numerical values given each is the mean for the respective two wells on the culture plate. The viable cell count is the total cell count minus the count of dead cells stained with trypan blue. The viable cell percentage is the percentage of viable cells among all the cells including dead cells. The viral antigen-positive cell percentage is the percentage of cells indicating antigen expression as found among all the cells including dead cells.

[1] = 96 h, read-out: Viable cell percentage, 1 mcg/ml, 4-day addition, after 4 days
[2] = 96 h, read-out: Viable cell percentage, 10 mcg/ml, 4-day addition, after 4 days
[3] = read-out: Viable cell percentage, 1 mcg/ml, 4-day addition, after 7 days
[4] = read-out: Viable cell percentage, 1 mcg/ml, 4-day addition, after 10 days
[5] = read-out: Viable cell percentage, 1 mcg/ml, 4-day addition, after 20 days
[6] = read-out: Viable cell percentage, 1 mcg/ml, 4-day addition, after 30 days
[7] = read-out: Viable cell percentage, 10 mcg/ml, 4-day addition, after 7 days
[8] = read-out: Viable cell percentage, 10 mcg/ml, 4-day addition, after 10 days
[9] = read-out: Viable cell percentage, 10 mcg/ml, 4-day addition, after 20 days
[10] = read-out: Viable cell percentage, 10 mcg/ml, 4-day addition, after 30 days

SMILES	Viable cell count (1 mcg/ml, after 4 days) [× 10⁴ cells/ml]	Viral antigen-positive cell percentage (1 mcg/ml, after 4 days) [%]	Viable cell count (1 mcg/ml, after 7 days) [× 10⁴ cells/ml]	Viral antigen-positive cell percentage (1 mcg/ml, after 7 days) [%]	Viable cell count (1 mcg/ml, after 10 days) [× 10⁴ cells/ml]	Viable cell count (1 mcg/ml, after 20 days) [× 10⁴ cells/ml]	Viable cell count (1 mcg/ml, after 30 days) [× 10⁴ cells/ml]	Viable cell count (10 mcg/ml, after 4 days) [× 10⁴ cells/ml]	Viral antigen-positive cell percentage (10 mcg/ml, after 4 days) [%]	Viable cell count (10 mcg/ml, after 7 days) [× 10⁴ cells/ml]	Viral antigen-positive cell percentage (10 mcg/ml, after 7 days) [%]	Viable cell count (10 mcg/ml, after 10 days) [× 10⁴ cells/ml]	Viral antigen-positive cell percentage (10 mcg/ml, after 10 days) [%]	Viable cell count (10 mcg/ml, after 20 days) [× 10⁴ cells/ml]	Viral antigen-positive cell percentage (10 mcg/ml, after 20 days) [%]	Viable cell count (10 mcg/ml, after 30 days) [× 10⁴ cells/ml]	Viral antigen-positive cell percentage (10 mcg/ml, after 30 days) [%]	viability at 1 µg/mL [1] [%]	viability at 10 µg/mL [2] [%]	viability at 1 µg/mL [3] [%]	further results
CCN1CCN(c2c(F)cc3c(=O)c(C(=O)O)cn4c3c2OCC4C)CC1 (racemic) [IIIa, (±)-9-Fluoro-3-methyl-10-(4-ethyl-1-piperazinyl)-7-oxo-2,3-dihydro-7H-pyrido[1,2,3-de][1,4]benzoxazine-6-carboxylic acid]	240	72	37	65	19	20	14	180	82	61	75	260	26	310	18	330	6	92	88	57	Viral antigen-positive cell percentage (1 mcg/ml, after 10 days): 30%; Viral antigen-positive cell percentage (1 mcg/ml, after 20 days): 20%; viability at 1 µg/mL [4]: 30%; viability at 1 µg/mL [5]: 78%; viability at 1 µg/mL [6]: 40%; viability at 10 µg/mL [7]: 74%; viability at 10 µg/mL [8]: 93%; viability at 10 µg/mL [9]: 91%; viability at 10 µg/mL [10]: 94%
CCCCN1CCN(c2c(F)cc3c(=O)c(C(=O)O)cn4c3c2OCC4C)CC1 (racemic) [IIIc, (±)-9-Fluoro-3-methyl-10-(4-n-butyl-1-piperazinyl)-7-oxo-2,3-dihydro-7H-pyrido[1,2,3-de][1,4]benzoxazine-6-carboxylic acid]	220	82	46	70	28	10	10	200	80	51	47	250	9	340	9	320	3	87	92	60	viability at 1 µg/mL [4]: 33%; viability at 1 µg/mL [5]: 55%; viability at 1 µg/mL [6]: 32%; viability at 10 µg/mL [7]: 67%; viability at 10 µg/mL [8]: 93%; viability at 10 µg/mL [9]: 93%; viability at 10 µg/mL [10]: 95%
CC(C)N1CCN(c2c(F)cc3c(=O)c(C(=O)O)cn4c3c2OCC4C)CC1 (racemic) [IIId, (±)-9-Fluoro-3-methyl-10-(4-isopropyl-1-piperazinyl)-7-oxo-2,3-dihydro-7H-pyrido[1,2,3-de][1,4]benzoxazine-6-carboxylic acid]	250	72	50	70	24	12	9	190	78	60	50	280	25	290	11	300	4	91	88	62	viability at 1 µg/mL [4]: 28%; viability at 1 µg/mL [5]: 60%; viability at 1 µg/mL [6]: 31%; viability at 10 µg/mL [7]: 67%; viability at 10 µg/mL [8]: 91%; viability at 10 µg/mL [9]: 95%; viability at 10 µg/mL [10]: 94%
CCCN1CCN(c2c(F)cc3c(=O)c(C(=O)O)cn4c3c2OCC4C)CC1 (racemic) [IIIb, (±)-9-Fluoro-3-methyl-10-(4-n-propyl-1-piperazinyl)-7-oxo-2,3-dihydro-7H-pyrido[1,2,3-de][1,4]benzoxazine-6-carboxylic acid]	220	88	53	62	19	25	14	190	80	62	50	240	40	320	13	300	4	89	89	75	viability at 1 µg/mL [4]: 27%; viability at 1 µg/mL [5]: 81%; viability at 1 µg/mL [6]: 36%; viability at 10 µg/mL [7]: 70%; viability at 10 µg/mL [8]: 83%; viability at 10 µg/mL [9]: 92%; viability at 10 µg/mL [10]: 94%

Reference: EP0394553A2, “Use of fluorine containing pyridone carboxylic acid derivatives for preparing a medicament for the treatment of HIV infections” (DAIICHI PHARMACEUTICAL CO., LTD., priority 1989, dated 1990)
